Test results from ChEMBL document CHEMBL1201862, “PubChem BioAssay data set” (2004).
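Values below derive from 48-hour exposures of cells grown in 96-well plates, with endpoints linearly interpolated between the two concentrations bracketing the appropriate inhibition level. The concentration for 50% growth inhibition is given as GI50.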 Activity calls are given as the source filed them. No stated cut-off is given here; in the data, active = GI50 up to about 1.1 µM and inactive = higher.

What was measured:
Experiment in all cases: DTP human tumour cell line panel, 48 h
A549 = test system: A549
CCRF-CEM = test system: CCRF-CEM
HL-60 = test system: HL-60
HOP-62 = test system: HOP-62
HOP-92 = test system: HOP-92
IGROV-1 = test system: IGROV-1
KM12 = test system: KM12
Malme-3M = test system: Malme-3M
NCI-H23 = test system: NCI-H23
OVCAR-4 = test system: OVCAR-4
OVCAR-8 = test system: OVCAR-8
SF-268 = test system: SF-268
SF-295 = test system: SF-295
SK-MEL-5 = test system: SK-MEL-5
SNB-75 = test system: SNB-75
SW-620 = test system: SW-620
TK-10 = test system: TK-10
UACC-257 = test system: UACC-257
UACC-62 = test system: UACC-62
OVCAR-3 = test system: OVCAR-3

Measured: GI50

O=C(Nc1cc(Cl)c(Cl)cc1Cl)C(=O)C1C(=O)NC(=S)NC1=O
inactive: A549 > 100 µM | CCRF-CEM > 100 µM | HL-60 > 100 µM | HOP-62 > 100 µM | HOP-92 > 100 µM | IGROV-1 > 100 µM | KM12 > 100 µM | Malme-3M > 100 µM | NCI-H23 > 100 µM | OVCAR-4 > 100 µM | OVCAR-8 > 100 µM | SF-268 > 100 µM | SF-295 > 100 µM | SK-MEL-5 > 100 µM | SNB-75 > 100 µM | SW-620 > 100 µM | TK-10 > 100 µM | UACC-257 > 100 µM | UACC-62 > 100 µM

CCNc1nc2c(=O)n(C)c(=O)n(C)c2s1
inactive: A549 > 100 µM | CCRF-CEM > 100 µM | HL-60 > 100 µM | HOP-62 > 100 µM | HOP-92 > 100 µM | IGROV-1 > 100 µM | KM12 > 100 µM | Malme-3M > 100 µM | NCI-H23 > 100 µM | OVCAR-3 > 100 µM | OVCAR-4 > 100 µM | OVCAR-8 > 100 µM | SF-268 > 100 µM | SF-295 > 100 µM | SNB-75 > 100 µM | SW-620 > 100 µM | TK-10 > 100 µM | UACC-257 > 100 µM | UACC-62 > 100 µM

O=c1/c(=C/c2ccc(-c3ccc(Cl)cc3Cl)o2)sc2n1[C@@H](c1ccc3c(c1)OCO3)C=C(c1cc(F)c(Cl)cc1Cl)N=2
inactive: A549 46.1 µM | CCRF-CEM 38.7 µM | HL-60 27.2 µM | HOP-62 5.87 µM | HOP-92 31.1 µM | IGROV-1 34.3 µM | KM12 57.5 µM | Malme-3M > 100 µM | NCI-H23 38.5 µM | OVCAR-4 33.3 µM | OVCAR-8 42 µM | SF-268 46.3 µM | SF-295 40.7 µM | SK-MEL-5 28.5 µM | SNB-75 > 100 µM | SW-620 35.8 µM | TK-10 7.78 µM | UACC-257 22.6 µM | UACC-62 16 µM

CSC(=S)NNC(=O)c1ccncc1
inactive: A549 61.4 µM | CCRF-CEM 18.9 µM | HL-60 20 µM | HOP-62 20.8 µM | HOP-92 25.3 µM | IGROV-1 14.6 µM | KM12 40.7 µM | Malme-3M 18.8 µM | NCI-H23 16.1 µM | OVCAR-3 21.4 µM | OVCAR-8 19.8 µM | SF-268 21.6 µM | SF-295 22.6 µM | SK-MEL-5 23.7 µM | SNB-75 17.5 µM | SW-620 11.3 µM | TK-10 26.7 µM | UACC-257 23.8 µM | UACC-62 16.5 µM

[N-]=[N+]=N/C1=C/CCCCC(=O)C1
inactive: A549 > 100 µM | CCRF-CEM > 100 µM | HL-60 > 100 µM | HOP-62 > 100 µM | HOP-92 51.4 µM | IGROV-1 > 100 µM | Malme-3M > 100 µM | NCI-H23 > 100 µM | OVCAR-4 > 100 µM | OVCAR-8 > 100 µM | SF-268 > 100 µM | SK-MEL-5 > 100 µM | SNB-75 > 100 µM | SW-620 > 100 µM | TK-10 > 100 µM | UACC-257 > 100 µM | UACC-62 > 100 µM

CCN(CCN(CC)C(=O)Nc1ccccc1)C(=O)Nc1ccccc1
inactive: A549 > 100 µM | CCRF-CEM > 100 µM | HL-60 > 100 µM | HOP-62 > 100 µM | HOP-92 > 100 µM | IGROV-1 > 100 µM | Malme-3M > 100 µM | NCI-H23 > 100 µM | OVCAR-8 > 100 µM | SF-268 > 100 µM | SF-295 > 100 µM | SK-MEL-5 > 100 µM | SNB-75 > 100 µM | SW-620 > 100 µM | TK-10 > 100 µM | UACC-257 > 100 µM | UACC-62 > 100 µM

C#CCNC(=O)NCCCCC(NC(=O)OCc1ccccc1)C(=O)OCc1ccccc1 (centres undefined)
inactive: A549 72.4 µM | CCRF-CEM 18.5 µM | HL-60 18 µM | HOP-92 > 72.4 µM | IGROV-1 > 100 µM | KM12 29.8 µM | Malme-3M > 100 µM | NCI-H23 > 64.3 µM | OVCAR-3 59.7 µM | OVCAR-4 > 78.3 µM | OVCAR-8 48.4 µM | SF-295 > 100 µM | SK-MEL-5 > 100 µM | SNB-75 > 72.4 µM | SW-620 72.8 µM | TK-10 > 100 µM | UACC-257 33.2 µM | UACC-62 63.5 µM

Cc1cc(SCC(=O)c2ccccc2)nc2ccccc12
inactive: A549 67.1 µM | HL-60 > 100 µM | HOP-62 88.9 µM | HOP-92 > 100 µM | IGROV-1 > 100 µM | KM12 > 100 µM | Malme-3M > 100 µM | NCI-H23 > 100 µM | OVCAR-3 41.2 µM | OVCAR-4 > 100 µM | OVCAR-8 > 100 µM | SF-268 55.8 µM | SF-295 > 100 µM | SK-MEL-5 > 100 µM | SNB-75 36.7 µM | SW-620 > 100 µM | TK-10 > 100 µM | UACC-257 > 100 µM | UACC-62 > 100 µM

CC1CCC2c3c([nH]c4ccccc34)C3C(=O)N(C4CCCCC4)C(=O)C3C2C1 (centres undefined)
inactive: A549 19.1 µM | CCRF-CEM 57.7 µM | HL-60 > 100 µM | HOP-62 14.4 µM | HOP-92 21 µM | IGROV-1 17.2 µM | Malme-3M 29.3 µM | NCI-H23 23.7 µM | OVCAR-3 19.9 µM | OVCAR-8 15.4 µM | SF-268 13.6 µM | SF-295 16.3 µM | SK-MEL-5 17.9 µM | SNB-75 2.78 µM | SW-620 67.3 µM | TK-10 13.4 µM | UACC-257 46.3 µM | UACC-62 12.2 µM

O=C(c1ccccc1)C(c1ccccc1)C1(O)C(=O)Nc2ccc([N+](=O)[O-])cc21 (centres undefined)
inactive: A549 > 100 µM | CCRF-CEM 41.9 µM | HL-60 42.9 µM | HOP-62 > 100 µM | HOP-92 31.8 µM | IGROV-1 > 100 µM | Malme-3M > 100 µM | NCI-H23 92 µM | OVCAR-4 64.6 µM | OVCAR-8 > 100 µM | SF-268 > 100 µM | SK-MEL-5 24 µM | SNB-75 61 µM | SW-620 > 100 µM | TK-10 > 100 µM | UACC-62 58.1 µM

c1ccc(-c2c(-c3cccs3)[nH]c(-c3cccs3)c2-c2ccccn2)nc1
inactive: A549 18.1 µM | CCRF-CEM 8.24 µM | HL-60 26.5 µM | HOP-92 25.8 µM | IGROV-1 22.5 µM | KM12 23.1 µM | Malme-3M 25.5 µM | NCI-H23 26.2 µM | OVCAR-3 24 µM | OVCAR-8 26.4 µM | SF-268 19.7 µM | SF-295 20.2 µM | SK-MEL-5 13.7 µM | SNB-75 17.6 µM | SW-620 13 µM | TK-10 40.2 µM | UACC-257 22 µM | UACC-62 18 µM
